This passage reports melting point results from US6566376B1, “Diphenyl-piperidine derivative” (AstraZeneca UK Limited, priority 1999, dated 2003).

A word on the melting point: it is the temperature, or range, at which the solid turns liquid.

Structures can show the parent of a compound that is named as a salt.

On to `Clc1cccc(Cn2ccc(CN3CCC(c4ccccc4)(c4ccccc4)CC3)n2)c1`, for which the melting point is 136 to 137 °C.

Take `FC(F)(F)c1ccc(Cn2ccc(CN3CCC(c4ccccc4)(c4ccccc4)CC3)n2)cc1` (as salt: hydrochloride): the melting point was in the range of 66 to 67 °C.

Molecule `CN(C)C(=O)COc1cc(Cl)ccc1Cn1ccc(CN2CCC(c3ccccc3)(c3ccccc3)CC2)n1` (as salt: hydrochloride) yielded a melting point of 181 to 182 °C.

`NC(=O)c1c(CN2CCC(c3ccccc3)(c3ccccc3)CC2)ncn1Cc1ccc(Cl)cc1` registered a melting point of 227 to 228 °C.

`O=Cc1cn(Cc2ccc(Cl)cc2)nc1CN1CCC(c2ccccc2)(c2ccccc2)CC1` returned a melting point of 133 to 134 °C.

Consider `Oc1cc(Cl)ccc1Cn1ccc(CN2CCC(c3ccccc3)(c3ccccc3)CC2)n1` (as salt: hydrochloride), for which the melting point fell in the range of 260 to 261 °C.

Molecule `Clc1ccc(Cn2ccc(CN3CCC(c4ccccc4)(c4ccccc4)CC3)n2)cc1` (as salt: hydrochloride) had a melting point of 137 to 138 °C.

`Clc1ccc(Cn2ccc(CN3CCC(c4ccccc4)(c4ccccc4)CC3)n2)cc1Cl` (as salt: hydrochloride) had a melting point of 191 to 192 °C.

For `Clc1ccc(Cn2nncc2CN2CCC(c3ccccc3)(c3ccccc3)CC2)cc1`, the melting point turned out to be 195 °C.

The molecule `Clc1ccc(Cc2ncc(CN3CCC(c4ccccc4)(c4ccccc4)CC3)[nH]2)cc1` (as salt: hydrochloride) displayed a melting point of 186 to 187 °C.

On to `Cc1ccc(Cn2ccc(CN3CCC(c4ccccc4)(c4ccccc4)CC3)n2)cc1C`, for which the melting point lay in the range of 139 to 140 °C.

As for `O=C(c1cnc(Cc2ccc(Cl)cc2)[nH]1)N1CCC(c2ccccc2)(c2ccccc2)CC1` [Example 23, [2-(4-Chlorobenzyl)-1H-imidazol-5-yl](4,4-diphenyl-1-piperidinyl)methanone], the melting point is 105 to 106 °C.

The molecule `Fc1ccc(Cn2ccc(CN3CCC(c4ccccc4)(c4ccccc4)CC3)n2)cc1` (as salt: hydrochloride) displayed a melting point of 192 to 193 °C.

Turning to `OCc1cn(Cc2ccc(Cl)cc2)nc1CN1CCC(c2ccccc2)(c2ccccc2)CC1`, the melting point was in the range of 104 to 105 °C.

Molecule `Clc1ccc(Cn2cnc(CN3CCC(c4ccccc4)(c4ccccc4)CC3)c2)cc1` (as salt: hydrochloride) displayed a melting point of 254 to 255 °C.

As to `Cc1ccc(Cn2ccc(CN3CCC(c4ccccc4)(c4ccccc4)CC3)n2)cc1` (as salt: hydrochloride), the melting point was 147 to 148 °C.

The molecule `O=C(O)c1c(CN2CCC(c3ccccc3)(c3ccccc3)CC2)ncn1Cc1ccc(Cl)cc1` registered a melting point of 135 to 136 °C.

In turn, `Clc1ccc(Cn2ccc(CN3CCC(c4ccccc4)(c4ccccc4)CC3)n2)c(Cl)c1` (as salt: hydrochloride) registered a melting point of 101 to 102 °C.

In turn, `Clc1ccc(Cn2cc(CN3CCC(c4ccccc4)(c4ccccc4)CC3)nn2)cc1` registered a melting point of 148 °C.

`COc1cc(Cl)ccc1Cn1ccc(CN2CCC(c3ccccc3)(c3ccccc3)CC2)n1` (as salt: hydrochloride) came in with a melting point of 73 to 74 °C.
